According to ChEMBL document CHEMBL5523740, “Discovery of Potent and Selective c-Met Degraders for Hepatocellular Carcinoma Treatment” (J Med Chem, 2024):
pIC50: −log10 of the molar value. Activity calls are given as the source filed them. The calls are words filed in the database; no cut-off is given here.

What was measured:
Mus musculus [1] = assay: Downregulation of phosphorylated c-Met level in BALB/c mouse tumor xenografted with human MHCC97H cells at 20 mg/kg, po qd for 22 days and measured every 2 days by Western blotting analysis; type: functional, organism-based; settings: time 22.0 day
[2] = Toxicity in BALB/c mouse xenografted with human MHCC97H cells assessed as lung lesions at 20 mg/kg, po qd for 22 days and measured every 2 days by H and E staining based assay; type: organism-based; settings: in vivo, 528 h, time 22 day
[3] = AUC(0 to infinity) in Sprague-Dawley rat at 10 mg/kg, po by LC-MS/MS method; type: ADME, organism-based; settings: in vivo
Mus musculus [4] = assay: Downregulation of phosphorylated c-Met level in BALB/c mouse tumor xenografted with human MHCC97H cells at 10 mg/kg, ip qd for 22 days and measured every 2 days by Western blotting analysis; type: functional, organism-based; settings: time 22.0 day
[5] = target: T1, Hepatocyte growth factor receptor (Homo sapiens, UniProt P08581); assay: Induction of c-Met degradation in human MHCC97H cells at 500 nM by Western blotting analysis; type: cell-based; settings: time 3-48 hrs, TDE = time-dependent effect
T1 sequence (P08581 whole entry): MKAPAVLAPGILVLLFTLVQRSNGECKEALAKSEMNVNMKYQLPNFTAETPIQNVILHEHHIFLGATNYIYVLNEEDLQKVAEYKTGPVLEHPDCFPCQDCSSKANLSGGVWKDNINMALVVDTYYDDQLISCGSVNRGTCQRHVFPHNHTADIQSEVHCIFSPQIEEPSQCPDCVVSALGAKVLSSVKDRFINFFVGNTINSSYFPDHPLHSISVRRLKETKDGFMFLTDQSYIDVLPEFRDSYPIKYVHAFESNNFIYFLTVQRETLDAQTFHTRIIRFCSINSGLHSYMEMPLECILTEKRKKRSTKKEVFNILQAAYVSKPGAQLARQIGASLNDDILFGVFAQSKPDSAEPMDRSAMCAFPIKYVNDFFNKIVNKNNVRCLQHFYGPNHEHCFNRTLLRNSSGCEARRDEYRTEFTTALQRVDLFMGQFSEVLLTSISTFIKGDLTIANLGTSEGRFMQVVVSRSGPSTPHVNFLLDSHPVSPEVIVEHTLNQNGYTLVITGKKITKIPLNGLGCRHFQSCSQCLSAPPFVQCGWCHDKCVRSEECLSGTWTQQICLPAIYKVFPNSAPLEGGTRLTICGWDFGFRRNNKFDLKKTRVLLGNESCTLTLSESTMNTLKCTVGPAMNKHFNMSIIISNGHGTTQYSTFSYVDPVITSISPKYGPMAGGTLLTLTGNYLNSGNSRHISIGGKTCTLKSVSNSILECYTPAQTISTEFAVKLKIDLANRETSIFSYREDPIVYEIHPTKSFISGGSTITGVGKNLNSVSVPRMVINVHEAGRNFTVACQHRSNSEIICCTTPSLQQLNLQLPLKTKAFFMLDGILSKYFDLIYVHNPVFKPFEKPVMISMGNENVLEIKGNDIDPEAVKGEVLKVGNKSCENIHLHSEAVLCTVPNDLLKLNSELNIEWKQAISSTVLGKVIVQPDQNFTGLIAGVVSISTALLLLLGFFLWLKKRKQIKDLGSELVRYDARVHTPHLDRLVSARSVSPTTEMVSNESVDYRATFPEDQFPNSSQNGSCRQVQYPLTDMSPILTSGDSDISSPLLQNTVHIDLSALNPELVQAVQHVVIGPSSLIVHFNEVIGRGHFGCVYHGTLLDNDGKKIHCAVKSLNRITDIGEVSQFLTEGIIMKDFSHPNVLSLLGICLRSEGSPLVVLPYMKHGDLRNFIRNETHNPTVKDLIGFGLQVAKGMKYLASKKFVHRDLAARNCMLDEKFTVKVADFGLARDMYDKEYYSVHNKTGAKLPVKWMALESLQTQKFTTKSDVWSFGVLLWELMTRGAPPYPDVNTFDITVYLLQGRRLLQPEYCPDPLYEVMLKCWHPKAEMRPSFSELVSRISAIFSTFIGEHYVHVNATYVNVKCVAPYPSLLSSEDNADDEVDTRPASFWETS

Mus musculus [6] = assay: Downregulation of phosphorylated STAT3 level in BALB/c mouse tumor xenografted with human MHCC97H cells at 20 mg/kg, po qd for 22 days and measured every 2 days by Western blotting analysis; type: functional, organism-based; settings: time 22.0 day
[7] = Cmax in Sprague-Dawley rat at 1 mg/kg, iv by LC-MS/MS method; type: ADME, organism-based; settings: in vivo
MHCC97H [8] = assay: Induction of cell cycle arrest in human MHCC97H cells assessed as accumulation of cells at G1 phase at 10 nM incubated for 24 hrs by PI staining based flow cytometry analysis (reference value: 70.4%); type: functional
BaF3 [9] = assay: Antiproliferative activity against mouse BaF3 cells harboring TPR-MET Y1230H mutant fusion protein incubated for 72 hrs by CellTiter-Glo reagent based assay; type: functional, cell-based; settings: BaF3, 72 h
MHCC97H [10] = assay: Induction of apoptosis in human MHCC97H cells assessed as early apoptotic cells at 10 nM incubated for 24 hrs by Annexin-V-FITC/PI staining based flow cytometry analysis (reference value: 7.70%); type: functional
MHCC97H [11] = assay: Antitumor activity against human MHCC97H cells xenografted in BALB/c mouse assessed as reduction in tumor positive cells at 10 mg/kg, ip qd for 22 days and measured every 2 days by Ki67 staining based analysis; type: functional, organism-based; settings: time 22.0 day
[12] = target: T1, Hepatocyte growth factor receptor; assay: Induction of c-Met degradation in human MHCC97H cells assessed as downregulation of c-Met protein level at 500 nM after 24 hrs by Western blotting analysis; type: cell-based
MHCC97H [13] = assay: Induction of apoptosis in human MHCC97H cells assessed as early apoptotic cells at 3 nM incubated for 24 hrs by Annexin-V-FITC/PI staining based flow cytometry analysis (reference value: 7.70%); type: functional
Mus musculus [14] = assay: Downregulation of c-Met protein level in BALB/c mouse tumor xenografted with human MHCC97H cells at 20 mg/kg, po qd for 22 days and measured every 2 days by Western blotting analysis; type: functional, organism-based; settings: time 22.0 day
[15] = target: T1, Hepatocyte growth factor receptor; assay: Induction of c-Met degradation in human MHCC97H cells incubated for 24 hrs by Western blotting analysis; type: cell-based
[16] = Oral bioavailability in Sprague-Dawley rat at 10 mg/kg by LC-MS/MS method; type: ADME, organism-based; settings: in vivo
MHCC97H [17] = assay: Inhibition of cell growth in human MHCC97H cells incubated for 5 days by microplate reader assay; type: functional, cell-based; settings: time 5.0 day
MHCC97H [18] = assay: Inhibition of colony formation in human MHCC97H cells at 3 to 100 nM incubated for 2 weeks by crystal violet staining based assay; type: functional, cell-based; settings: dose 3-100 nM
[19] = Clearance in Sprague-Dawley rat at 1 mg/kg, iv by LC-MS/MS method; type: ADME, organism-based; settings: in vivo
[20] = Toxicity in BALB/c mouse xenografted with human MHCC97H cells assessed as spleen lesions at 10 mg/kg, ip qd for 22 days and measured every 2 days by H and E staining based assay; type: organism-based; settings: in vivo, 528 h, time 22 day
[21] = Toxicity in BALB/c mouse xenografted with human MHCC97H cells assessed as lung lesions at 10 mg/kg, ip qd for 22 days and measured every 2 days by H and E staining based assay; type: organism-based; settings: in vivo, 528 h, time 22 day
MHCC97H [22] = assay: Induction of apoptosis in human MHCC97H cells assessed as necrotic cells at 3 nM incubated for 24 hrs by Annexin-V-FITC/PI staining based flow cytometry analysis (reference value: 1.77%); type: functional
MHCC97H [23] = assay: Induction of apoptosis in human MHCC97H cells assessed as early apoptotic cells at 100 nM incubated for 24 hrs by Annexin-V-FITC/PI staining based flow cytometry analysis (reference value: 7.70%); type: functional
[24] = Clearance in Sprague-Dawley rat at 10 mg/kg, po by LC-MS/MS method; type: ADME, organism-based; settings: in vivo
[25] = Toxicity in BALB/c mouse xenografted with human MHCC97H cells assessed as liver lesions at 10 mg/kg, ip qd for 22 days and measured every 2 days by H and E staining based assay; type: organism-based; settings: in vivo, 528 h, time 22 day
BaF3 [26] = assay: Antiproliferative activity against mouse BaF3 cells harboring TPR-MET fusion protein incubated for 72 hrs by CellTiter-Glo reagent based assay; type: functional, cell-based; settings: BaF3, 72 h
MHCC97H [27] = assay: Induction of apoptosis in human MHCC97H cells assessed as late apoptotic cells at 100 nM incubated for 24 hrs by Annexin-V-FITC/PI staining based flow cytometry analysis (reference value: 4.24%); type: functional
MHCC97H [28] = assay: Induction of cell cycle arrest in human MHCC97H cells assessed as accumulation of cells at G2 phase at 10 nM incubated for 24 hrs by PI staining based flow cytometry analysis (reference value: 19.1%); type: functional
[29] = target: T1, Hepatocyte growth factor receptor; assay: Induction of c-Met degradation in human HepG2 cells incubated for 24 hrs by Western blotting analysis; type: cell-based; settings: dose 63-100 nM
[30] = Toxicity in BALB/c mouse xenografted with human MHCC97H cells assessed as heart lesions at 20 mg/kg, po qd for 22 days and measured every 2 days by H and E staining based assay; type: organism-based; settings: in vivo, 528 h, time 22 day
[31] = Toxicity in BALB/c mouse xenografted with human MHCC97H cells assessed as spleen lesions at 20 mg/kg, po qd for 22 days and measured every 2 days by H and E staining based assay; type: organism-based; settings: in vivo, 528 h, time 22 day
[32] = Toxicity in BALB/c mouse xenografted with human MHCC97H cells assessed as kidney lesions at 20 mg/kg, po qd for 22 days and measured every 2 days by H and E staining based assay; type: organism-based; settings: in vivo, 528 h, time 22 day
[33] = Toxicity in BALB/c mouse xenografted with human MHCC97H cells assessed as liver lesions at 20 mg/kg, po qd for 22 days and measured every 2 days by H and E staining based assay; type: organism-based; settings: in vivo, 528 h, time 22 day
[34] = Toxicity in BALB/c mouse xenografted with human MHCC97H cells assessed as kidney lesions at 10 mg/kg, ip qd for 22 days and measured every 2 days by H and E staining based assay; type: organism-based; settings: in vivo, 528 h, time 22 day
MHCC97H [35] = assay: Induction of apoptosis in human MHCC97H cells assessed as viable cells at 100 nM incubated for 24 hrs by Annexin-V-FITC/PI staining based flow cytometry analysis (reference value: 86.3%); type: functional; settings: read-out: Activity
MHCC97H [36] = assay: Antiproliferative activity against human MHCC97H cells incubated for 24 hrs by CCK8 assay; type: functional, cell-based

In the case of N#Cc1cccc(-c2ccc(=O)n(Cc3cccc(-c4ncc(OCC5CCN(CCCCCC(=O)NCC67CC8CC(CC(C8)C6)C7)CC5)cn4)c3)n2)c1, the Activity (Mus musculus [1]) was “Active”, the Activity [2] was “Non-Toxic” and the AUC(0-inf) [3] was 74.5 ng·h/mL. The Activity (Mus musculus [4]) was “Active”, the Activity [5] was “Tde” and the Activity (Mus musculus [6]) was “Active”. It also gave a Cmax [7] of 1630 ng/mL, an Activity (MHCC97H [8]) of 77.6% and a pIC50 (BaF3 [9]) of 6.42. For the same molecule, the Activity (MHCC97H [10]) was 19.7%, the Activity (MHCC97H [11]) was “Active” and the Activity [12] was “Active”. The Activity (MHCC97H [13]) was 16%, the Activity (Mus musculus [14]) was “Active” and the DC50 [15] was 226 nM. The Activity ([15]; dose 63-100 nM) was “Dose-Dependent Effect”, the bioavailability [16] was 0.8% and the inhibition (MHCC97H [17]) was “Active”. The inhibition (MHCC97H [18]) was “Active”, the clearance [19] was 17.5 mL/min/kg and the Activity [20] was “Non-Toxic”. For the same molecule, the Activity [21] was “Non-Toxic”, the Activity (MHCC97H [22]) was 0.74% and the Activity (MHCC97H [23]) was 39.9%. For the same molecule, the CL/F [24] was 3310 mL/min/kg, the Activity [25] was “Non-Toxic” and the pIC50 (BaF3 [26]) was 8.21. For the same molecule, the Activity (MHCC97H [27]) was 6.06%, the Activity (MHCC97H [28]) was 14.3% and the Activity [29] was “Dose-Dependent Effect”. The Activity [30] was “Non-Toxic”, the Activity [31] was “Non-Toxic” and the Activity [32] was “Non-Toxic”. The Activity [33] was “Non-Toxic”, the Activity [34] was “Non-Toxic” and the viability at 0.1 µM (MHCC97H [35]) was 52.7%. It also gave a pIC50 (MHCC97H [36]) of 8.58.
